# Data published in ChEMBL document CHEMBL1800038, “Kabiramides J and K, trisoxazole macrolides from the sponge Pachastrissa nux” (J Nat Prod, 2011).
# Calls of active or inactive are those of the source. The rule behind the calls is not given here.
# Experiments:
# [1] = Cytotoxicity against human Fibroblasts by SRB assay; assay type: cell-based; conditions: Fibroblast
# [2] = system: Plasmodium falciparum; assay: Antimalarial activity against multidrug-resistance Plasmodium falciparum K1 assessed as growth inhibition at […] by microdilution radioisotope technique; assay type: functional, organism-based
# [3] = system: MCF7; assay: Cytotoxicity against human MCF7 cells by SRB assay; assay type: functional, cell-based
# [4] = system: Plasmodium falciparum; assay: Antimalarial activity against multidrug-resistance Plasmodium falciparum K1 assessed as growth inhibition by microdilution radioisotope technique; assay type: functional, organism-based
Structure (SMILES),IC50 [1],inhibition [2],IC50 [3],IC50 [4]
CO[C@H]1C/C=C/c2nc(co2)-c2nc(co2)-c2nc(co2)[C@H](OC)[C@@H](C)[C@@H](O)C[C@@H](C)C[C@H](OC(N)=O)CC(=O)O[C@@H](C[C@H](OC)[C@@H](C)CCC(=O)/C(C)=C/[C@H](C)/C=C/N(C)C=O)[C@@H]1C [KABIRAMIDE G],2370 nM,inactive,20 nM,
CO[C@H]([C@H](C)/C=C/N(C)C=O)[C@@H](C)C(=O)CC[C@H](C)[C@H](C[C@@H]1OC(=O)C[C@@H](OC(N)=O)C[C@H](C)C[C@H](O)[C@H](C)[C@@H](OC)c2coc(n2)-c2coc(n2)-c2coc(n2)/C=C/C[C@H](O)[C@H]1C)OC [KABIRAMIDE B],950 nM,,450 nM,1670 nM
CO[C@@H](C[C@@H]1OC(=O)C[C@@H](OC(N)=O)C[C@H](C)C[C@H](O)[C@H](C)[C@@H](OC)c2coc(n2)-c2coc(n2)-c2coc(n2)/C=C/C[C@H](O)[C@H]1C)[C@@H](C)CCC(=O)/C(C)=C/[C@H](C)/C=C/N(C)C=O [KABIRAMIDE J],,,20 nM,310 nM
C[C@H]1[C@@H](O)O[C@@H]2O[C@@]3(C)CC[C@H]4[C@H](C)CC[C@@H]1[C@@]24OO3 [ARTENIMOL],,,,3.8 nM
CO[C@H]1C/C=C/c2nc(co2)-c2nc(co2)-c2nc(co2)[C@H](OC)[C@@H](C)[C@@H](O)C[C@@H](C)C[C@H](O)CC(=O)O[C@@H](C[C@H](OC)[C@@H](C)CCC(=O)/C(C)=C/[C@H](C)/C=C/N(C)C=O)[C@@H]1C [KABIRAMIDE K],,,70 nM,390 nM
CO[C@H]([C@H](C)/C=C/N(C)C=O)[C@@H](C)C(=O)CC[C@H](C)[C@H](C[C@@H]1OC(=O)C[C@@H](O)C[C@H](C)C[C@H](O)[C@H](C)[C@@H](OC)c2coc(n2)-c2coc(n2)-c2coc(n2)/C=C/C[C@H](OC)[C@H]1C)OC [KABIRAMIDE D],500 nM,,20 nM,1870 nM
CO[C@H]([C@H](C)/C=C/N(C)C=O)[C@@H](C)C(=O)CC[C@H](C)[C@H](C[C@@H]1OC(=O)C[C@@H](OC(N)=O)C[C@H](C)C[C@H](O)[C@H](C)[C@@H](OC)c2coc(n2)-c2coc(n2)-c2coc(n2)/C=C/C[C@H](OC)[C@H]1C)OC [KABIRAMIDE C],7590 nM,,470 nM,4790 nM
CC[C@@]1(O)C(=O)OCc2c1cc1n(c2=O)Cc2cc3ccccc3nc2-1 [CAMPTOTHECIN],459 nM,,1.6 nM,
